Data published in patent US10702475B2, “Liposome containing compositions and their use in personal care and food products” (priority 2017, dated 2020).

Test: Evaluation of polyglyceryl ester surfactants for structuring a liposome
Assay type: physicochemical
Settings: class given by column head
Description: A series of polyglyceryl ester surfactants were evaluated to identify those capable of structuring a liposome. These reveal that liposome formation requires from 8 to 12 units of glycerol and a di-ester of C14-C18 fatty acid to establish a liposomal structure.

Substance | structure formed by the surfactant (O/W emulsion, liposome or W/O emulsion)
Polyglyceryl-10 Dioleate | forms liposomes
Polyglyceryl-10 Mono/Dioleate | forms O/W emulsions
